Assay results reported in paper doi:10.1101/2021.06.10.447852v1 (biorxiv, 2021).

Tested on: EZH2 (methyltransferase component of PRC2)
Experiment: cells
Settings: Homo sapiens, HEK-293T, 48 h, read-out: Cell IC50 (H3K27me3) (nM)

Row | IC50 [nM] | Compound
1 | 6 | CSc1cc(C)[nH]c(=O)c1CN1CCN(C)c2c(Cl)cc(-c3c(C)noc3C)c(Cl)c2C1=O [compound 21, TDI-11904]
2 | 167 | CSc1cc(C)n(C)c(=O)c1CN1CCNc2c(Cl)cc(-c3c(C)noc3C)c(Cl)c2C1=O [compound 23, 23]
3 | 1550 | CSc1cc(C)n(C)c(=O)c1CN1CCN(C)c2c(Cl)cc(-c3c(C)noc3C)c(Cl)c2C1=O [compound 22, 22]
